Laboratory results as given in the supplement of paper PMC10307832.

Experiments:
Experiment in all cases: relative viability (nuclei count vs DMSO), 5 days (fraction); higher = more cells survive
[1] = compound: Nc1nc(Nc2ccc3c(c2)CC[C@@H](N2CCCC2)CC3)nn1-c1cc2c(nn1)-c1ccccc1CCC2 [Bemcentinib] + CC(=O)c1c(C)c2cnc(Nc3ccc(N4CCNCC4)cn3)nc2n(C2CCCC2)c1=O [Palbociclib] (partner 0.5 µM)
Procedure, shortened: (§1)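 Lung cancer cell lines in 1536-well plates got either a single drug or a fixed anchor-drug dose together with five library-drug doses (not always all listed) in √10 steps, by pin tool, on the day after seeding. Nuclei were counted after 5 days, and relative viability is the treated-to-vehicle ratio of nuclei counts. Values are medians of duplicate plates.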

[2] = compound: CC1=CC=C(C=C1)C(=O)CN2C3=C(CCCC3)SC2=N [Pifithrin_alpha] + C[C@]1(O)C[C@@H](c2nc(-c3ccc4ccc(-c5ccccc5)nc4c3)c3c(N)nccn32)C1 [Linsitinib] (partner 1 µM)
Procedure, shortened: as §1

[3] = compound: CC1=CC=C(C=C1)C(=O)CN2C3=C(CCCC3)SC2=N [Pifithrin_alpha] + CS(=O)(=O)CCNCc1ccc(-c2ccc3ncnc(Nc4ccc(OCc5cccc(F)c5)c(Cl)c4)c3c2)o1 [Lapatinib] (partner 2 µM)
Procedure, shortened: as §1

[4] = compound: CC1=CC=C(C=C1)C(=O)CN2C3=C(CCCC3)SC2=N [Pifithrin_alpha] + Nc1ncn([C@H]2C[C@H](O)[C@@H](CO)O2)c(=O)n1 [Decitabine] (partner 2 µM)
Procedure, shortened: as §1

Q: NCI-H650 was tested. Which relative viability ([1]; first compound 0.04 µM) did it give?
A: 0.337

Q: And the relative viability ([1]; first compound 0.1265 µM)?
A: 0.298

Q: What about the relative viability ([1]; first compound 0.4 µM) of the same cell line?
A: 0.338

Q: What about the relative viability ([1]; first compound 1.265 µM) of the same cell line?
A: 0.333

Q: What about the relative viability ([1]; first compound 4 µM) of the same cell line?
A: 0.298

Q: What about the relative viability ([2]; first compound 3.162 µM) of the same cell line?
A: 1

Q: What about the relative viability ([2]; first compound 10 µM) of the same cell line?
A: 0.778

Q: And the relative viability ([2]; first compound 31.62 µM)?
A: 0.524

Q: And the relative viability ([2]; first compound 100 µM)?
A: 0.807

Q: What about the relative viability ([3]; first compound 3.162 µM) of the same cell line?
A: 1.11

Q: And the relative viability ([3]; first compound 10 µM)?
A: 1.11

Q: And the relative viability ([3]; first compound 31.62 µM)?
A: 0.532

Q: What about the relative viability ([3]; first compound 100 µM) of the same cell line?
A: 0.767

Q: And the relative viability ([4]; first compound 3.162 µM)?
A: 0.323

Q: What about the relative viability ([4]; first compound 10 µM) of the same cell line?
A: 0.335

Q: What about the relative viability ([4]; first compound 31.62 µM) of the same cell line?
A: 0.235

Q: What about the relative viability ([4]; first compound 100 µM) of the same cell line?
A: 0.275
